# Results published in ChEMBL document CHEMBL5725827, “2-pyridyloxy-3-ester-4-nitrile orexin receptor antagonists” (2017).
# Target: Orexin/Hypocretin receptor type 1 (Rattus norvegicus, UniProt P56718)
# Experiment: Radioligand Binding Assay: Described in Bergman et. al. Bioorg. Med. Chem. Lett. 2008, 18, 1425-1430.
# Design: species or system Homo sapiens
# Sequence of Orexin/Hypocretin receptor type 1 (P56718 whole entry, looked up): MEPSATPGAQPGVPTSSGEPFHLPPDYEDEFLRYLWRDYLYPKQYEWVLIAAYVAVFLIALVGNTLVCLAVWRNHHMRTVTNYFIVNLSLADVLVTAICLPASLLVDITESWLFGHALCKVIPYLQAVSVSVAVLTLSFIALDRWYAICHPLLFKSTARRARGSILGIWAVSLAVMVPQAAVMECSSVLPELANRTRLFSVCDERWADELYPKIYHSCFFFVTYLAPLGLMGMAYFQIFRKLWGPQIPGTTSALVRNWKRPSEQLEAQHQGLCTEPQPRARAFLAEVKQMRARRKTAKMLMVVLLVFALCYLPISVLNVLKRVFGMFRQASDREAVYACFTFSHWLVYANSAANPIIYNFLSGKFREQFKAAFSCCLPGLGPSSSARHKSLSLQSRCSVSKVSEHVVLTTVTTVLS
row,Structure (SMILES),Ki
1,COC(=O)c1c(C#N)ccnc1O[C@@H]1CC[C@@H](C)N(C(=O)c2ccccc2-c2nc(C)no2)C1,73.8 nM
2,COC(=O)c1c(C#N)ccnc1O[C@@H]1CC[C@@H](C)N(C(=O)c2cc(F)ccc2-c2noc(C)n2)C1,117 nM
3,COC(=O)c1c(C#N)ccnc1O[C@@H]1CC[C@@H](C)N(C(=O)c2ccccc2-c2noc(C)n2)C1,86.6 nM
4,COC(=O)c1c(C#N)ccnc1O[C@@H]1CC[C@@H](C)N(C(=O)c2cc(F)ccc2-c2ncccn2)C1,46 nM
5,COC(=O)c1c(C#N)ccnc1O[C@@H]1CC[C@@H](C)N(C(=O)c2cccc(F)c2-c2noc(C)n2)C1,128 nM
6,COC(=O)c1c(C#N)ccnc1O[C@@H]1CC[C@@H](C)N(C(=O)c2c(C)cccc2-n2nccn2)C1,37.1 nM
7,COC(=O)c1c(C#N)ccnc1O[C@@H]1CC[C@@H](C)N(C(=O)c2ccc(F)cc2-c2ncccn2)C1,75.6 nM
8,COC(=O)c1c(C#N)ccnc1O[C@@H]1CC[C@@H](C)N(C(=O)c2cc(F)ccc2-c2nc(C)no2)C1,153 nM
9,COC(=O)c1c(C#N)ccnc1O[C@@H]1CC[C@@H](C)N(C(=O)c2ccc(F)cc2-c2nc(C)no2)C1,405 nM
10,COC(=O)c1c(C#N)ccnc1O[C@@H]1CC[C@@H](C)N(C(=O)c2cc(C)ccc2-n2nccn2)C1,25.8 nM
11,COC(=O)c1c(C#N)ccnc1O[C@@H]1CC[C@@H](C)N(C(=O)c2ccc(F)cc2-n2nccn2)C1,175 nM
12,COC(=O)c1c(C#N)ccnc1O[C@@H]1CC[C@@H](C)N(C(=O)c2cc(F)ccc2-n2nccn2)C1,144 nM
13,COC(=O)c1c(C#N)ccnc1O[C@@H]1CC[C@@H](C)N(C(=O)c2c(F)cccc2-n2nccn2)C1,63 nM
14,COC(=O)c1c(C#N)ccnc1O[C@@H]1CC[C@@H](C)N(C(=O)c2ccccc2-n2nccn2)C1,56 nM
15,COC(=O)c1c(C#N)ccnc1O[C@@H]1CC[C@@H](C)N(C(=O)c2cccc(F)c2-n2nccn2)C1,210 nM
